Reference: US20120165319A1, “INHIBITORS OF INTERLEUKIN-1 BETA CONVERTING ENZYME” (VERTEX PHARMACEUTICALS INCORPORATED, priority 1995, published 2012)
Read-outs that look alike come from different tables or passages of the source.

Columns and labels:
[1] = test system: IL-1β, human peripheral blood mononuclear cells (PBMC); test: PBMC cell assay: IL-1β assay with human PBMC or enriched adherent mononuclear cells, LPS-stimulated; format: cell-based
How it was run: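 Mature IL-1β is measured by ELISA in supernatants after 16–18 hr at 37 °C, 5% CO2, with LPS (5 ng/ml final) and test compound (0.1% DMSO final). Cells are human PBMC (6×10^6 cells/ml) or plate-adherent mononuclear cells (2.5−3.0×10^5 per well), and the 5–6 compound concentrations span the ICE Ki.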

IL-1β, human whole blood = test: Whole blood assay for IL-1β production; format: cell-based; conditions: read-out: Whole human blood IC50
How it was run: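 IL-1β was quantified by ELISA in plasma diluted 1:200. The plasma came from EDTA-anticoagulated human whole blood incubated at 30 °C for 16-18 h with LPS (final 5.0 ng/ml) plus a saline serial dilution of compound. Controls were no-LPS, no-inhibitor and highest-vehicle.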

[2] = test system: IL-1β production, LPS-challenged mice; test: In vivo acute assay for efficacy as anti-inflammatory agent: LPS-induced IL-1β production in mice; set-up: species or system mouse; conditions: for percent inhibition of IL-1β production / inhibition at 50 mg/kg: LPS challenged mice, compound PO, 50 mg/kg; for inhibition at 50 mg/kg: Mus musculus, po, read-out: percent inhibition of IL-1β production
Method: In Vivo Acute Assay for Efficacy as Anti-Inflammatory Agent
LPS-Induced IL-1β Production.
Efficacy of 214e and 217e was evaluated in CD1 mice (n=6 per condition) challenged with LPS (20 mg/kg IP). […] Blood was collected seven hours after LPS challenge. Serum IL-1β levels were measure by ELISA. […] Similar results were obtained in a second experiment. […] However, a clear dose response was not apparent.
Compounds 214e and 217e (50 mg/kg) were also administered by oral gavage to assess absorption.
The efficacy of analogs of 214e were also evaluated in LPS challenged mice after IP administration (FIG. 9) and PO administration (FIG. 10).
[…] The protocol is described in Example 7.

[3] = In vivo rat clearance assay; conditions: for clearance: plasma, iv
Method: In Vivo Rat Clearance Assay
Cannulations of the jugular and carotid vessels of rats under anesthesia were performed one day prior to the pharmacokinetic study. M. J. Free, R. A. Jaffee; ‘Cannulation techniques for the collection blood and other bodily fluids’; in: Animal Models; p. 480-495; N. J. Alexander, Ed.; Academic Press; (1978). Drug (10 mg/mL) was administered via the jugular vein in a vehicle usually consisting of: propylene glycol/saline, containing 100 mM sodium bicarbonate in a 1:1 ratio. Animals were dosed with 10-20 mg drug/kg and blood samples were drawn at 0, 2, 5, 7, 10, 15, 20, 30, 60, and 90 minutes from an indwelling carotid catheter. The blood was centrifuged to plasma and stored at −20° C. until analysis. Pharmacokinetic analysis of data was performed by non-linear regression using standard software such as RStrip (MicroMath Software, UT) and/or Pcnonlin (SCI Software, NC) to obtain clearance values.
Rat plasma was extracted with an equal volume of acetonitrile (containing 0.1% TFA). Samples were then centrifuged at approximately 1,000×g and the supernatant analyzed by gradient HPLC. A typical assay procedure is described below.
A standard curve was run at 20, 10, 5, 2 and 1 μg/mL concentrations.

ICE = target: T1, ICE (Homo sapiens, UniProt P29466); test: Enzyme assay with UV-visible substrate (visible ICE assay, Succinyl-Tyr-Val-Ala-Asp-pNitroanilide); format: biochemical
T1 sequence (P29466 120-297 limits assumed): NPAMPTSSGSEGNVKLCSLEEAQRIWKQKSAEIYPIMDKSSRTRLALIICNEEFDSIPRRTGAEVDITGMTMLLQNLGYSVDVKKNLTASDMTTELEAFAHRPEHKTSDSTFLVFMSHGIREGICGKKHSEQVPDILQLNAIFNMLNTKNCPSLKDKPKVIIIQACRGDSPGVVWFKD
T1 sequence (P29466 317-404 limits assumed): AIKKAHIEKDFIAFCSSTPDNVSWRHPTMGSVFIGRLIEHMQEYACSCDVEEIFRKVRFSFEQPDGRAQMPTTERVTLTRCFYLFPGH
How it was run: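 Read-out is the rate of pNA chromophore release (mOD/min, linear fit) monitored at 405-603 nm over 20 min at 37° C. Substrate was succinyl-Tyr-Val-Ala-Asp-pNitroanilide, added after a 15 min room-temperature preincubation of ICE with inhibitor.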

[4] = Homo sapiens, PBMC, * = values obtained upon reassay
[5] = % inhibition of IL-β production, LPS-challenged mice, 50 mg/kg (Table 3)
[6] = * = values obtained upon reassay
[7] = 0 h, administered 0 h relative to time of LPS challenge
[8] = 1 h, administered +1 h relative to time of LPS challenge
[9] = 2 h, administered −2 h relative to time of LPS challenge

Row | SMILES | clearance ([3]; 10-20 mg/kg) | Ki (ICE; Table 5) | IC50 [1, 4] | inhibition at 50 mg/kg [2, 7] | inhibition at 50 mg/kg [2, 9] | other results
1 | CC(=O)Nc1cccc(C(=O)N[C@H]2CCC(=O)N3CCC[C@@H](C(=O)N[C@H]4CC(=O)OC4OCc4ccccc4)N3C2=O)c1 (mixture of isomers) [Compound 213o, [1S,9S(2RS,3S)]9-[(3-Acetamido)benzamido]-N-(2-benzyloxy-5-oxotetrahydrofuran-3-yl)-6,10-dioxo-1,2,3,4,7,8,9,10-octahydro-6H-pyridazino[1,2-a][1,2]diazepine-1-carboxamide] |  |  |  |  |  | IC50 ([1]; Table 17): 5000 nM; IC50 (IL-1β, human whole blood; Table 17): 3300 nM; percent inhibition of IL-1β production ([2]; administered 0 h relative to time of LPS challenge): 8%; percent inhibition of IL-1β production ([2]; administered −2 h relative to time of LPS challenge): 4%
2 | COc1cccc2nc(C(=O)[C@H](CC(=O)O)NC(=O)CN3C(=O)[C@@H](NC(=O)CCc4ccccc4)CN(C(=O)CCc4ccccc4)c4ccccc43)oc12 [Compound 108b, 4-(7-Methoxybenzoxazol-2-yl)-4-oxo-3(S)-{2-[2-oxo-5-(3-phenylpropionyl)-3(S)-(3-phenylpropionylamino)-2,3,4,5-tetrahydrobenzo[b][1,4]diazepin-1-yl]-acetylamino}butyric acid] | > 100 mL/min/kg |  |  |  |  | 
3 | COc1cccc(NC(=O)NN2CCC(=O)N3CCC[C@@H](C(=O)N[C@H](C=O)CC(=O)O)N3C2=O)c1 [Compound 265c, [3S(4S)]3-[6,10-Dioxo-7-(3-methoxyphenylureido)-1,2,3,4,7,8,9,10-octahydro-6H-pyridazino[1,2-a][1,2,4]triazepine-4-carboxamido]-4-oxobutanoic acid] |  |  |  |  |  | Ki (ICE; Table 17): 1100 nM; IC50 ([1]; Homo sapiens, PBMC, Table 17): 4500 nM; clearance ([3]; Table 17): 32 mL/min/kg
4 | COc1ccccc1NC(=O)NN1CCC(=O)N2CCC[C@@H](C(=O)N[C@H](C=O)CC(=O)O)N2C1=O [Compound 265d, [3S(4S)]3-[6,10-Dioxo-7-(2-methoxyphenylureido)-1,2,3,4,7,8,9,10-octahydro-6H-pyridazino[1,2-a][1,2,4]-triazepine-4-carboxamido]-4-oxobutanoic acid] |  |  |  |  |  | Ki (ICE; Table 17): 500 nM; IC50 ([1]; Homo sapiens, PBMC, Table 17): 1500 nM; clearance ([3]; Table 17): 35 mL/min/kg
5 | CS(=O)(=O)N[C@H]1CCC(=O)N2CCC[C@@H](C(=O)N[C@@H](CC(=O)O)C(=O)COc3cccnc3)N2C1=O [Compound 283b, [3S(1S,9S)]3-(6,10-Dioxo-9-methanesulphonamido-1,2,3,4,7,8,9,10-octahydro-6H-pyridazino[1,2-a][1,2]diazepine-1-carboxamido)-4-oxo-5(3-pyridyloxy)pentanoic acid] |  |  |  |  |  | IC50 ([1]; Table 17): 1750 nM; Clearance Rat, i.v. ([3]; Table 17): 41 mL/min/kg
6 | O=C[C@H](CC(=O)O)NC(=O)[C@@H]1CCCN2C(=O)CC[C@H](NS(=O)(=O)c3ccccc3)C(=O)N12 [Compound 427] | 36 mL/min/kg | 180 nM | 4500 nM |  |  | 
7 | O=C[C@H](CC(=O)O)NC(=O)[C@@H]1CCCN2C(=O)CC[C@H](NC(=O)c3ccc4ncccc4c3)C(=O)N12 [Compound 438] | 22 mL/min/kg | 28 nM | 1000 nM |  |  | IP % Inhibition [2, 5]: 40%; POS Inhibition ([2]; % inhibition of IL-β production, LPS-challenged mice, PO, 50 mg/kg (Table 3)): 13%
8 | COc1ccc(C(=O)N[C@H]2CCC(=O)N3CCC[C@@H](C(=O)N[C@H](C=O)CC(=O)O)N3C2=O)cc1 [Compound 452] | 27.3 mL/min/kg | 4.5 nM | 600 nM | 89% | 28% | IC50 [1, 6]: 800 nM; inhibition at 50 mg/kg [2, 8]: 70%
9 | Nc1ccc(C(=O)N[C@H]2CCC(=O)N3CCC[C@@H](C(=O)N[C@H](C=O)CC(=O)O)N3C2=O)cc1Cl [Compound 481] | 34 mL/min/kg | 1.2 nM |  | 0% | 27% | IC50 (IL-1β, human whole blood; [6]): 500 nM; IC50 (IL-1β, human whole blood; Homo sapiens, * = values obtained upon reassay): 600 nM
10 | CCOC1OC(=O)C[C@@H]1NC(=O)[C@@H]1CCCN2C(=O)CC[C@H](NC(=O)c3ccc(O)cc3)C(=O)N12 (stereo partly drawn) [Compound 550p, [1S,9S(2RS,3S)]6,10-Dioxo-N-(2-ethoxy-5-oxotetrahydrofuran-3-yl)-9-(4-hydroxybenzoyl)amino-1,2,3,4,7,8,9,10-octahydro-6H-pyridazino[1,2-a][1,2]diazepine-1-carboxamide] |  |  |  | 60% | 30% | IC50 (IL-1β, human whole blood; Homo sapiens, Table 17): 2900 nM
11 | O=C[C@H](CC(=O)O)NC(=O)[C@@H]1CCCN2C(=O)CC[C@H](NC(=O)C(=O)c3ccccc3)C(=O)N12 [Compound 2002, [3S(1S,9S)]3-(9-Benzoylformylamino-6,10-dioxo-1,2,3,4,7,8,9,10-octahydro-6H-pyridazino[1,2-a][1,2]-diazepine-1-carboxamido)-4-oxobutanoic acid] | 32 mL/min/kg | 4 nM | 810 nM | 87% | 5% | IC50 [1, 6]: 860 nM; IP % Inhibition [2, 5]: 78%
12 | CCOC(=O)CC(=COC(C)=O)NC(=O)[C@@H]1CCCN2C(=O)CC[C@H](NC(=O)c3ccccc3)C(=O)N12 [Compound 2100j, [3S(1S,9S)]3-(9-Benzoylamino-6,10-dioxo-1,2,3,4,7,8,9,10-octahydro-6H-pyridazino[1,2-a][1,2]diazepine-1-carboxamido)-4-acetoxy-3-butenoic acid ethyl ester] |  |  |  | 0% | 48% | Ki (ICE; Table 17): 30000 nM; IC50 (IL-1β, human whole blood; Homo sapiens, Table 17): 12000 nM; inhibition at 50 mg/kg [2, 8]: 33%; inhibition at 50 mg/kg ([2]; 1 h, administered −1 h relative to time of LPS challenge): 41%
